From US12479877B2, “Methods for purifying steviol glycosides and uses of the same” (PureCircle Sdn. Bhd., priority 2010, dated 2025)
Entries after “also recorded” stand apart in the source; their conditions may differ.

Key:
Format in all cases: in vivo, human
panelists [1] = test: Sensory properties in acidified water (pH 3.0) at 500 mg/L, 20 panelists; details: 500 ppm, acidified water pH 3.0, 20 panelists
Description: The sensory properties of Reb X were evaluated in acidified water (pH 3.0 by phosphoric acid) at 500 mg/L concentration by 20 panelists.

one experienced panelist = test: Taste evaluation of Reb X against Reb A and Reb D, multi-sip and swallow taste method; details: for Taste Properties: 500 ppm in citric buffer (pH 3.22), room temperature
Description: The taste properties of a sample of Reb X were studied against Rebaudioside A (Reb A) and Rebaudioside D (Rb D) samples. Rb A was obtained from Cargill (lot #1040) and Reb-D was obtained from PureCircle (lot #11/3/08).
The samples were prepared at 500 ppm for sweetness evaluation by adding moisture compensated mass into a 100 mL sample of carbon-treated water and citric buffer solutions.
Citric buffer was prepared by mixing 1.171 g/L citric acid, 0.275 g/L sodium citrate and 0.185 g/L sodium benzoate with carbon-treated water, with a final pH of 3.22. The mixtures were moderately stirred at room temperature. The Reb X sample was then evaluated against the two control Reb A and Reb D samples in water and citric buffer at room temperature (RT) and at 4° C. in an ice bath by one experienced panelist for any tasting quality determinations using the controlled, multi-sip and swallow taste method shown below:
1. Take first sip (˜1.8 mL) of control and swallow. Wait for 15-25 sec, then take second sip of control and wait for 15-25 sec.
2. Take first sip of the experimental sample, wait for 15-25 sec, then take second sip. Compare to second sip of control.
3. Repeat steps #1 and #2 for the third and fourth sips of the control and experimental samples to confirm the initial finding.
The taste evaluation results of the Reb X samples against the control Reb A and Reb D samples at 500 ppm in citric buffer (CB) at 4° C. and RT are described in Table 4.

panelists [2] = test: Sensory properties in acidified water (pH 3.0) at 500 mg/L, 20 panelists; details: 10,000 ppm, acidified water pH 3.0, 20 panelists

SMILES | Astringent taste: Number of panelists detected the attribute (panelists [1]) | Bitter taste: Number of panelists detected the attribute (panelists [1]) | Licorice taste: Number of panelists detected the attribute (panelists [1]) | Overall evaluation: Satisfactory (number of panelists of 20) (panelists [1]) | Sweet Aftertaste: Number of panelists detected the attribute (panelists [1]) | Taste Properties (one experienced panelist) | Astringency, sweetness intense (depth) and bitterness notes (one experienced panelist; 500 ppm, citrate buffer system, compared with Reb A) | Quality of sweet taste: Bitter aftertaste (number of panelists of 20) (panelists [1]) | Astringent taste: Number of panelists detected the attribute (panelists [2]) | Bitter taste: Number of panelists detected the attribute (panelists [2]) | Licorice taste: Number of panelists detected the attribute (panelists [2]) | Overall evaluation: Satisfactory (number of panelists of 20) (panelists [2]) | Quality of sweet taste: Clean (number of panelists of 20) (panelists [2]) | Sweet Aftertaste: Number of panelists detected the attribute (panelists [2])
C=C1C[C@@]23CC[C@H]4[C@@](C)(CCC[C@@]4(C)C(=O)O[C@@H]4O[C@H](CO)[C@@H](O)[C@H](O)[C@H]4O[C@@H]4O[C@H](CO)[C@@H](O)[C@H](O)[C@H]4O)[C@@H]2CC[C@]1(O[C@@H]1O[C@H](CO)[C@@H](O)[C@H](O[C@@H]2O[C@H](CO)[C@@H](O)[C@H](O)[C@H]2O)[C@H]1O[C@@H]1O[C@H](CO)[C@@H](O)[C@H](O)[C@H]1O)C3 [Reb D, Rebaudioside D] | 3 | 3 | 2 | (11 of 20) | 5 | Delayed sweetness onset, less sweetness linger as compared to Reb; also recorded: A, no bitter off-notes | did not have the astringency or sweetness intense (depth) and bitterness notes compared to that of the Reb A |  |  |  |  |  |  | 
C=C1C[C@@]23CC[C@H]4[C@@](C)(CCC[C@@]4(C)C(=O)O[C@@H]4O[C@H](CO)[C@@H](O)[C@H](O)[C@H]4O)[C@@H]2CC[C@]1(O[C@@H]1O[C@H](CO)[C@@H](O)[C@H](O[C@@H]2O[C@H](CO)[C@@H](O)[C@H](O)[C@H]2O)[C@H]1O[C@@H]1O[C@H](CO)[C@@H](O)[C@H](O)[C@H]1O)C3 [Reb A, Rebaudioside A] | 20 | 20 | 20 | (1 of 20) | 20 | Delayed sweetness onset, significant lingering sweet aftertaste,; also recorded: licorice and bitter off-notes |  | (20 of 20) |  |  |  |  |  | 
C=C1C[C@@]23CC[C@H]4[C@@](C)(CCC[C@@]4(C)C(=O)O[C@@H]4O[C@H](CO)[C@@H](O)[C@H](O)[C@H]4O)[C@@H]2CC[C@]1(O[C@@H]1O[C@H](CO)[C@@H](O)[C@H](O)[C@H]1O[C@@H]1O[C@H](CO)[C@@H](O)[C@H](O)[C@H]1O)C3 [Stevioside] | 20 | 20 | 20 | (0 of 20) | 20 |  |  | (20 of 20) |  |  |  |  |  | 
OC[C@H]1O[C@@](CO)(O[C@H]2O[C@H](CO)[C@@H](O)[C@H](O)[C@H]2O)[C@@H](O)[C@@H]1O [Sucrose] |  |  |  |  |  |  |  |  | 0 | 0 | 0 | (20 of 20) | Clean (20 | 0
